Our source for the IC50 and ED50 values is US5118686A, “Phenylpyrimidones” (Smith Kline & French Laboratories Limited, priority 1989, dated 1992).

Assay [1] concerns spontaneous colonic activity (distal colon segment). Nature of the assay: Inhibition of spontaneous colonic activity - in vitro. The following applies: Cavia porcellus; isolated distal colon, Krebs solution, 37° C.; read-out: IC50 (concentration of compound required to reduce spontaneous colonic activity by 50%). More on the design: species or system guinea-pig (male albino). An excerpt:
Male albino guinea-pigs (300-400g) were killed by a blow to the back of the head and exsanguinated. A 2cm long segment of the proximal part of the hypogastric loop of the distal colon was rapidly dissected out and placed in oxygenated (95% O2, 5% CO2) modified warm Krebs solution. The tissue was cleaned out with Krebs and the adjoining mesentery discarded. Cotton was then tied to each end and the colon was attached to a tissue holder in an organ bath containing modified oxygenated Krebs solution at 37° C. The other end of the tissue was tied to an isometric transducer and placed under 1 g tension. Force developed by the muscle was detected by the transducer, and recorded on a multitrace pen recorder. Spontaneous colonic activity, as assessed by the contraction distance over a five minute period, was subjected to computer analysis.
The tissues were allowed to settle at a resting tension of 1 g for 1 hour, during which time they were washed at 15 minute intervals. Three samples of pre-dose activity were taken and averaged. The tissues were then dosed and two samples of post-dose activity were taken. The lowest value was used to calculate the percentage relaxation, and log dose response curves were constructed. The tissues were washed 10 minutes after dosing and left for 15 minutes to settle prior to the next control period.
The concentration of compound required to reduce spontaneous colonic activity by 50% is given as the IC50.

In assay [2] the test system is U46619-induced bronchoconstriction. As to the kind of experiment: Bronchodilatation - In vivo (inhibition of U46619-induced bronchoconstriction in anaesthetised guinea-pigs). Conditions: Cavia porcellus, iv; i.v. bolus; U46619 infused i.v. 2.5 nmol/min; peak inhibition; read-out: BD50 (dose of compound required to reduce the U46619-induced bronchoconstriction by 50%). The arrangement: species or system guinea-pig (Dunkin Hartley strain, male). The method, then:
Male guinea-pigs of the Dunkin Hartley strain (500-600g) were anaesthetised with Sagatal (pentobarbital sodium) (60 mg/kg). Airway resistance was measured using a modification of the classical Konzett-Rossler technique (J. pharm. Methods, 13, 309-315, 1985). U46619 (9,11-methanoepoxy-PGH2) was infused i.v. at a rate of 2.5 nmol/min, this produced a steady state of bronchoconstriction (approximately 120% increase from basal airway resistance). The compound under test was administered by i.v. bolus injection, and the subsequent peak inhibition of bronchoconstriction recorded.

In the case of `CCCOc1ccccc1-c1nc(O)cc(C(N)=O)n1` [Example 15, 6-Hydroxy-2-(2-propoxyphenyl)pyrimidine-4-carboxamide], the IC50 in assay [1] was found to be 0.75 µM.

Regarding `CCCOc1ccccc1-c1nc(NC(=O)NC)cc(=O)[nH]1` [Example 5, 6-N'-methylureido-2-(2-propoxyphenyl)pyrimidin-4[3H]-one], the ED50 in assay [2] was determined as 8.34 µmol/kg. Besides, in assay [1], the IC50 amounted to 2.4 µM.

Take `CCCOc1ccccc1-c1nc(O)cc(C(=O)NCC)n1` [Example 21, N-Ethyl 6-hydroxy-2-(2-propoxyphenyl)pyrimidine-4-carboxamide]: in assay [1], the IC50 amounted to 3.7 µM.

Turning to `CCCOc1ccccc1-c1nc(O)cc(C#N)n1` [Example 16, 4-cyano-6-hydroxy-2-(2-propoxyphenyl)pyrimidine], the ED50 in assay [2] amounted to 6.03 µmol/kg.

As to `CCCOc1ccccc1-c1nc(O)cc(CC)n1` [Example 18, 4-Ethyl-6-hydroxy-2-(2-propoxyphenyl)pyrimidine], in assay [2], the ED50 amounted to 9.7 µmol/kg. The IC50 in assay [1] was 3.3 µM.
